Counter-ions that a name gives are not always drawn.
tested on: Acinetobacter baumannii ATCC17961; assay: Antimicrobial susceptibility testing: 90% growth inhibitory concentration (IC90) determination; format: cell-based; conditions: 90% growth inhibitory concentration, Acinetobacter baumannii ATCC17961, Iso-Sensitest broth, OD 600 nm over 16 h; formate; read-out: ATCC 17961 IC90
In short: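 A. baumannii ATCC17961 at ~5×10^5 CFU/ml in Iso-Sensitest broth exposed to 10-point twofold dilutions (e.g. 50–0.097 μM final), 35±2° C. OD600 read every 20 minutes over 16h; IC50 and IC90 derived from inhibition during logarithmic growth.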

Q: `COCCn1cc(-c2ccc(-c3cnc(C(=O)Nc4ccc(C(=O)N5CCN(C(=O)C6CC[N+](C)(CC(N)=O)CC6)CC5)c(Cl)c4)n3C)c(F)c2F)c(C)n1` (stereo not drawn) [Example B3, N-[4-[4-[1-(2-amino-2-oxo-ethyl)-1-methyl-piperidin-1-ium-4-carbonyl]piperazine-1-carbonyl]-3-chloro-phenyl]-5-[2,3-difluoro-4-[1-(2-methoxyethyl)-3-methyl-pyrazol-4-yl]phenyl]-1-methyl-imidazole-2-carboxamide; formate] was tested. Which IC90 did it give?
A: 0.13 µM

same assay, conditions: Acinetobacter baumannii, ATCC17961, 16 h, 90% growth inhibitory concentration, Acinetobacter baumannii ATCC17961, Iso-Sensitest broth, OD 600 nm over 16 h; read-out: ATCC 17961 IC90

Q: How did the IC90 turn out when `COCCn1nc(C)c(-c2ccc(-c3cnc(C(=O)Nc4ccc(C(=O)NC5[C@H]6CN(C(=O)N[C@@H]7C[N+](C)(C)C[C@H]7O)C[C@@H]56)c(Cl)c4)n3C)c(F)c2F)c1C` (mixture of isomers) [Example F60, rac-(1S,5R)-6-[[2-chloro-4-[[5-[2,3-difluoro-4-[1-(2-methoxyethyl)-3,5-dimethyl-pyrazol-4-yl]phenyl]-1-methyl-imidazole-2-carbonyl]amino]benzoyl]amino]-N-[(3R,4R)-4-hydroxy-1,1-dimethyl-pyrrolidin-1-ium-3-yl]-3-azabicyclo[3.1.0]hexane-3-carboxamide; formate] was run?
A: 0.15 µM

Q: `COCCCn1cc(-c2ccc(-c3cnc(C(=O)Nc4ccc(C(=O)N5CCN(C(=O)C6CC[N+](C)(C)CC6)CC5)c(Cl)c4)n3C)c(F)c2F)c(C(F)(F)F)n1` [Example F38, N-[3-chloro-4-[4-(1,1-dimethylpiperidin-1-ium-4-carbonyl)piperazine-1-carbonyl]phenyl]-5-[2,3-difluoro-4-[1-(3-methoxypropyl)-3-(trifluoromethyl)pyrazol-4-yl]phenyl]-1-methyl-imidazole-2-carboxamide; formate] was tested. Which IC90 did it give?
A: 0.76 µM

Q: `COCCn1ncc(-c2ccc(-c3cnc(C(=O)Nc4ccc(C(=O)N5CCN(C(=O)C6(N)CC[N+](C)(C)CC6)CC5)c(Cl)c4)n3C)c(F)c2F)c1C` [Example D20, N-[4-[4-(4-amino-1,1-dimethyl-piperidin-1-ium-4-carbonyl)piperazine-1-carbonyl]-3-chloro-phenyl]-5-[2,3-difluoro-4-[1-(2-methoxyethyl)-5-methyl-pyrazol-4-yl]phenyl]-1-methyl-imidazole-2-carboxamide; formate] was tested. Which IC90 did it give?
A: 0.064 µM

Q: `COCCn1cc(-c2ccc(-c3cnc(C(=O)Nc4ccc(C(=O)N5CCN(C(=O)[C@@H]6CC(CO)C[N+]6(C)C)CC5)c(Cl)c4)n3C)c(F)c2F)c(C)n1` (stereo partly drawn) [Example A12, N-[3-chloro-4-[4-[(2S)-4-(hydroxymethyl)-1,1-dimethyl-pyrrolidin-1-ium-2-carbonyl]piperazine-1-carbonyl]phenyl]-5-[2,3-difluoro-4-[1-(2-methoxyethyl)-3-methyl-pyrazol-4-yl]phenyl]-1-methyl-imidazole-2-carboxamide; formate] was tested. Which IC90 did it give?
A: 0.21 µM

Q: How did the IC90 turn out when `COCCn1ncc(-c2ccc(-c3cnc(C(=O)Nc4ccc(C(=O)N5CCN(C(=O)CCCC(=O)N6CC[N+](CCCN)(CC(=O)O)CC6)CC5)c(Cl)c4)n3C)c(F)c2F)c1C` [Example P5, 2-[1-(3-aminopropyl)-4-[5-[4-[2-chloro-4-[[5-[2,3-difluoro-4-[1-(2-methoxyethyl)-5-methyl-pyrazol-4-yl]phenyl]-1-methyl-imidazole-2-carbonyl]amino]benzoyl]piperazino]-5-keto-pentanoyl]piperazin-1-ium-1-yl]acetic acid; formate] was run?
A: 0.295 µM

Q: How did the IC90 turn out when `COCCn1ncc(-c2ccc(-c3cnc(C(=O)Nc4ccc(C(=O)N5CCN(C(=O)C6CC[N+](CC(=O)O)(CC7CNC7)CC6)CC5)c(Cl)c4)n3C)c(F)c2Cl)c1C` (stereo not drawn) [Example B28, 2-[1-(azetidin-3-ylmethyl)-4-[4-[2-chloro-4-[[5-[3-chloro-2-fluoro-4-[1-(2-methoxyethyl)-5-methyl-pyrazol-4-yl]phenyl]-1-methyl-imidazole-2-carbonyl]amino]benzoyl]piperazine-1-carbonyl]piperidin-1-ium-1-yl]acetic acid; formate] was run?
A: 0.23 µM

Q: With `COCCn1ncc(-c2ccc(-c3cnc(C(=O)Nc4ccc(C(=O)N5CCN(C(=O)C6CC[N+](CC(=O)O)(CC7CNC7)CC6)CC5)c(Cl)c4)n3C)c(F)c2F)c1C` (stereo not drawn) [Example B20, 2-[1-(azetidin-3-ylmethyl)-4-[4-[2-chloro-4-[[5-[2,3-difluoro-4-[1-(2-methoxyethyl)-5-methyl-pyrazol-4-yl]phenyl]-1-methyl-imidazole-2-carbonyl]amino]benzoyl]piperazine-1-carbonyl]piperidin-1-ium-1-yl]acetic acid; formic acid; formate] as the compound, how does the IC90 read?
A: 0.22 µM

Q: `COCCn1ncc(-c2ccc(-c3cnc(C(=O)Nc4ccc(C(=O)N5CCN(C(=O)C6CCNCC6)CC5)c(Cl)c4)n3C)c(C)c2F)c1C` [Example E5, N-[3-chloro-4-[4-(piperidine-4-carbonyl)piperazine-1-carbonyl]phenyl]-5-[3-fluoro-4-[1-(2-methoxyethyl)-5-methyl-pyrazol-4-yl]-2-methyl-phenyl]-1-methyl-imidazole-2-carboxamide; formic acid] was tested. Which IC90 did it give?
A: 0.18 µM

Q: `COCCn1ncc(-c2ccc(-c3cnc(C(=O)Nc4ccc(C(=O)N5CCN(C(=O)C6CC[N+](C)(CC7CNC7)CC6)CC5)c(Cl)c4)n3C)c(F)c2F)c1C` (stereo not drawn) [Example B21, N-[4-[4-[1-(azetidin-3-ylmethyl)-1-methyl-piperidin-1-ium-4-carbonyl]piperazine-1-carbonyl]-3-chloro-phenyl]-5-[2,3-difluoro-4-[1-(2-methoxyethyl)-5-methyl-pyrazol-4-yl]phenyl]-1-methyl-imidazole-2-carboxamide; formic acid; formate] was tested. Which IC90 did it give?
A: 0.1 µM

Q: `COCCn1nc(C)c(-c2ccc(-c3cnc(C(=O)Nc4ccc(C(=O)N[C@H]5[C@@H]6CN(C(=O)[C@@H]7C[C@@H](O)C[N+]7(C)C)C[C@@H]65)c(Cl)c4)n3C)c(F)c2F)c1C` [Example D38, N-[3-chloro-4-[[(1R,5S)-3-[(2S,4R)-4-hydroxy-1,1-dimethyl-pyrrolidin-1-ium-2-carbonyl]-3-azabicyclo[3.10]hexan-6-yl]carbamoyl]phenyl]-5-[2,3-difluoro-4-[1-(2-methoxyethyl)-3,5-dimethyl-pyrazol-4-yl]phenyl]-1-methyl-imidazole-2-carboxamide; formate] was tested. Which IC90 did it give?
A: 0.15 µM

Q: `Cc1c(-c2ccc(-c3cnc(C(=O)Nc4ccc(C(=O)N5CCN(C(=O)C6CC[N+](C)(C)CC6)CC5)c(Cl)c4)n3C)c(F)c2F)cnn1CCNC(=O)c1ccccn1` [Example H1, N-[2-[4-[4-[2-[[3-chloro-4-[4-(1,1-dimethylpiperidin-1-ium-4-carbonyl)piperazine-1-carbonyl]phenyl]carbamoyl]-3-methyl-imidazol-4-yl]-2,3-difluoro-phenyl]-5-methyl-pyrazol-1-yl]ethyl]pyridine-2-carboxamide formate] was tested. Which IC90 did it give?
A: 0.15 µM

Q: `Cn1cc(-c2n[nH]cc2-c2ccc(-c3cnc(C(=O)Nc4ccc(C(=O)N5CCN(C(=O)C6CC[N+](C)(C)CC6)CC5)c(Cl)c4)n3C)c(F)c2F)cn1` [Example F47, N-[3-chloro-4-[4-(1,1-dimethylpiperidin-1-ium-4-carbonyl)piperazine-1-carbonyl]phenyl]-5-[2,3-difluoro-4-[3-(1-methylpyrazol-4-yl)-1H-pyrazol-4-yl]phenyl]-1-methyl-imidazole-2-carboxamide; formate] was tested. Which IC90 did it give?
A: 0.53 µM

Q: For `COCCn1cc(-c2ccc(-c3cnc(C(=O)Nc4ccc(C(=O)N5CCN(C(=O)[C@@H]6C[C@@H](O)C[N+]6(C)CCCO)CC5)c(Cl)c4)n3C)c(F)c2F)c(C)n1` (stereo partly drawn) [Example B27, N-[3-chloro-4-[4-[(2S,4R)-4-hydroxy-1-(3-hydroxypropyl)-1-methyl-pyrrolidin-1-ium-2-carbonyl]piperazine-1-carbonyl]phenyl]-5-[2,3-difluoro-4-[1-(2-methoxyethyl)-3-methyl-pyrazol-4-yl]phenyl]-1-methyl-imidazole-2-carboxamide; iodide], which IC90 is on record?
A: 0.24 µM

Q: `COCCCn1cc(-c2ccc(-c3cnc(C(=O)Nc4ccc(C(=O)N5CCN(C(=O)[C@@H]6C[C@@H](O)C[N+]6(C)C)CC5)c(Cl)c4)n3C)c(F)c2F)c(C)n1` [Example D11, N-[3-chloro-4-[4-[(2S,4R)-4-hydroxy-1,1-dimethyl-pyrrolidin-1-ium-2-carbonyl]piperazine-1-carbonyl]phenyl]-5-[2,3-difluoro-4-[1-(3-methoxypropyl)-3-methyl-pyrazol-4-yl]phenyl]-1-methyl-imidazole-2-carboxamide; formate] was tested. Which IC90 did it give?
A: 0.27 µM

Q: Which IC90 does the source give for `Cc1nn(CC(=O)NC2CCCCC2)cc1-c1ccc(-c2cnc(C(=O)Nc3ccc(C(=O)N4CCN(C(=O)C5CC[N+](C)(C)CC5)CC4)c(Cl)c3)n2C)c(F)c1F` [Example G9, N-[3-chloro-4-[4-(1,1-dimethylpiperidin-1-ium-4-carbonyl)piperazine-1-carbonyl]phenyl]-5-[4-[1-[2-(cyclohexylamino)-2-oxo-ethyl]-3-methyl-pyrazol-4-yl]-2,3-difluoro-phenyl]-1-methyl-imidazole-2-carboxamide; formate] here?
A: 0.21 µM

same assay, conditions: Acinetobacter baumannii, ATCC17961, 16 h, read-out: ATCC 17961 IC90

Q: With `COCCn1ncc(-c2ccc(-c3cnc(C(=O)Nc4ccc(C(=O)N5CCN(C(=O)C[N+](C)(C)C)CC5)c(Cl)c4)n3C)c(F)c2F)c1C` [Example A8, [2-[4-[2-chloro-4-[[5-[2,3-difluoro-4-[1-(2-methoxyethyl)-5-methyl-pyrazol-4-yl]phenyl]-1-methyl-imidazole-2-carbonyl]amino]benzoyl]piperazin-1-yl]-2-oxo-ethyl]-trimethyl-ammonium; 2,2,2-trifluoroacetate] as the compound, how does the IC90 read?
A: 0.053 µM

Q: Which IC90 does the source give for `COCCn1cc(-c2ccc(-c3cnc(C(=O)Nc4ccc(C(=O)N5CCN(C(=O)C6CC[N+](C)(C)CC6)CC5)c(Cl)c4)n3C)c(F)c2F)c(C)n1` [Example A1, N-[3-chloro-4-[4-(1,1-dimethylpiperidin-1-ium-4-carbonyl)piperazine-1-carbonyl]phenyl]-5-[2,3-difluoro-4-[l-(2-methoxyethyl)-3-methyl-pyrazol-4-yl]phenyl]-1-methyl-imidazole-2-carboxamide; formate] here?
A: 0.12 µM
